Measured values from the NIST ThermoML archive (doi:10.1016/j.jct.2013.05.040).

Key:
[1] = xn = mol fraction of the nth substance listed; conditions: Liquid; for viscosity: Moving piston method; for mass density: Vibrating tube method
[2] = Liquid; for mass density: Vibrating tube method; for viscosity: 101.33 kPa, Moving piston method

CC [ethane] + CC(C)O
[1]
Conditions | mass density, 302.9 K [kg/m3] | mass density, 323.1 K [kg/m3] | viscosity, 302.9 K [mPa·s] | viscosity, 323.1 K [mPa·s]
910 kPa, x1 = 0.057 | – | 741.3 | – | 0.882
1030 kPa, x1 = 0.09 | 751.2 | – | 1.251 | –
1990 kPa, x1 = 0.141 | – | 716.3 | – | 0.663
2030 kPa, x1 = 0.199 | 718.5 | – | 0.919 | –
2970 kPa, x1 = 0.227 | – | 688.2 | – | 0.471
3040 kPa, x1 = 0.347 | 669.3 | – | 0.526 | –
3650 kPa, x1 = 0.47 | 623 | – | 0.246 | –
3970 kPa, x1 = 0.334 | – | 650.6 | – | 0.338
4940 kPa, x1 = 0.478 | – | 593.7 | – | 0.217
5620 kPa, x1 = 0.644 | – | 515.7 | – | 0.131

C [methane] + CC(C)O
[1]
Conditions | mass density, 302.8 K [kg/m3] | mass density, 323.1 K [kg/m3] | viscosity, 302.8 K [mPa·s] | viscosity, 323.1 K [mPa·s]
980 kPa, x1 = 0.018 | – | 754.5 | – | 0.908
1070 kPa, x1 = 0.019 | 771.2 | – | 1.523 | –
2020 kPa, x1 = 0.033 | – | 750 | – | 0.847
2080 kPa, x1 = 0.037 | 767.2 | – | 1.403 | –
3080 kPa, x1 = 0.049 | – | 745 | – | 0.8
3190 kPa, x1 = 0.055 | 761.2 | – | 1.339 | –
4080 kPa, x1 = 0.065 | – | 740.7 | – | 0.74
4080 kPa, x1 = 0.069 | 756.5 | – | 1.262 | –
4980 kPa, x1 = 0.078 | – | 736.9 | – | 0.717
5080 kPa, x1 = 0.085 | 753.3 | – | 1.208 | –
6040 kPa, x1 = 0.093 | – | 732.3 | – | 0.676
6060 kPa, x1 = 0.1 | 748.9 | – | 1.129 | –

CC(C)O [propan-2-ol]
mass density [kg/m3], [2]
Conditions | 302.9 K | 323 K
1000 kPa | – | 760.6
1040 kPa | 778.1 | –
2000 kPa | 778.9 | –
2020 kPa | – | 761.6
2990 kPa | 779.8 | –
3000 kPa | – | 762.7
4060 kPa | 780.8 | –
4070 kPa | – | 763.7
5000 kPa | – | 764.7
5010 kPa | 781.6 | –
6000 kPa | 782.5 | –
6010 kPa | – | 765.7
7020 kPa | 783.4 | 766.7
8010 kPa | – | 767.7
8020 kPa | 784.3 | –
9000 kPa | 785.1 | –
9010 kPa | – | 768.6
10000 kPa | 786 | –
10020 kPa | – | 769.6

[2]
Conditions | viscosity [mPa·s]
303.3 K | 1.716
323.2 K | 0.973

CC(C)O [propan-2-ol] + O=C=O
[1]
Conditions | mass density, 302.8 K [kg/m3] | mass density, 323.1 K [kg/m3] | viscosity, 302.8 K [mPa·s] | viscosity, 323.1 K [mPa·s]
980 kPa, x2 = 0.047 | – | 762.7 | – | 0.895
990 kPa, x2 = 0.062 | 783.8 | – | 1.365 | –
1960 kPa, x2 = 0.102 | – | 767.2 | – | 0.743
2000 kPa, x2 = 0.133 | 791 | – | 1.108 | –
2950 kPa, x2 = 0.164 | – | 771.5 | – | 0.657
2980 kPa, x2 = 0.212 | 798.5 | – | 0.895 | –
3930 kPa, x2 = 0.23 | – | 776.1 | – | 0.538
3970 kPa, x2 = 0.304 | 807.3 | – | 0.604 | –
4930 kPa, x2 = 0.305 | – | 780.3 | – | 0.394
5940 kPa, x2 = 0.391 | – | 783.7 | – | 0.321
